Among the data in US5948791A, “Quinoline derivatives for treating malaria” (Hoffmann-La Roche Inc., priority 1995, dated 1999) are IC50, Resistance index and inhibition in vivo values, retold here.

The term IC50 denotes the concentration needed to halve the response being measured.

Counter-ions that a name gives are not always drawn. Like-named read-outs stand apart in the source and are kept apart here.

The test system of test [1] is Plasmodium falciparum K1. The test is described as follows: Growth inhibition of Plasmodium falciparum K1 (chloroquine-resistant) in vitro, [G-3H]-hypoxanthin incorporation. It is filed as cell-based, Plasmodium falciparum (strain K1). Conditions: for IC50: Plasmodium falciparum, K1, 72 h, read-out: IC50 for P. falciparum K1; for Resistance index: ratio of the IC50 for K1 and the IC50 for NF54. A digest of the protocol: (§1)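 Asynchronous intraerythrocytic cultures in human A+ erythrocytes (0.7% parasitemia, 2.5% suspension) in RPMI 1640 with HEPES, NaHCO3 and human serum, exposed to compound titrated over 6-7 steps for 72 h at 37° C, 3% O2. Growth by [G-3H]-hypoxanthin incorporation against untreated controls; IC50 by logit regression.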

The subject of test [2] is Plasmodium falciparum strain NF54. Description: Growth inhibition of Plasmodium falciparum NF54 (chloroquine-sensitive) in vitro, [G-3H]-hypoxanthin incorporation. Conditions: chloroquine-sensitive strain NF54, 72 h, read-out: IC50 for P. falciparum NF54. It is filed as cell-based. A digest of the protocol: as §1
For test [3], the system named is Plasmodium berghei. The test is described as follows: animal or person. It is filed as in vivo, Plasmodium berghei (strain ANKA) in mice. The note with it: Plasmodium berghei, mice, blood smears 48 h after treatment. An outline of the steps:
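Male albino mice (~25 g) infected i.v. on D0 with P. berghei ANKA (0.2 ml of 10^8 parasitized erythrocytes/ml); single s.c. and p.o. dose 24 h post-infection, 10 mg/kg screen then titration.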

[4] abbreviates: po, single peroral dose of 10 mg/kg, read-out: Growth inhibition in % after po administration (GI%, percentage reduction of the parasitemia).
Where [5] appears, read: sc, single subcutaneous dose of 10 mg/kg, read-out: Growth inhibition in % after sc administration (GI%, percentage reduction of the parasitemia).

`COc1cccc(CNC(C)(C)CNc2ccnc3cc(Cl)ccc23)c1O.Cl.Cl` [Example 30, N1-(7-Chloro-quinolin-4-yl)-N2-(2-hydroxy-3-methoxy-benzyl)-2-methyl-propane-1,2-diamine dihydrochloride]: the values for the IC50 in test [1] and in test [2] were 0.0114 µg/mL and 0.0067 µg/mL, respectively. Further, the Resistance index in test [1] worked out at 1.7. Moreover, the inhibition in vivo at 10 mg/kg is 70% in test [3] (setting [4]) and 95% in test [3] (setting [5]).
The like results for `COc1ccc(O)c(CNC(C)(C)CNc2ccnc3cc(Cl)ccc23)c1.Cl.Cl` [Example 31, N1-(7-Chloro-quinolin-4-yl)-N2-(2-hydroxy-5-methoxy-benzyl)-2-methyl-propane-1,2-diamine dihydrochloride] were, in that order, 0.0099 µg/mL, 0.0065 µg/mL, 1.5, 39% and 98%.
The like results for `COc1cc(CNC(C)(C)CNc2ccnc3cc(Cl)ccc23)ccc1O.Cl.Cl` [Example 33, N1-(7-Chloro-quinolin-4-yl)-N2-(4-hydroxy-3-methoxy-benzyl)-2-methyl-propane-1,2-diamine dihydrochloride] were, in that order, 0.0071 µg/mL, 0.0063 µg/mL, 1.1, 10% and 97%.
For `COc1cc(CNC(C)(C)CNc2ccnc3cc(Cl)ccc23)cc(OC)c1.Cl.Cl` [Example 40, N1-(7-Chloro-quinolin-4-yl)-N2-(3,5-dimethoxy-benzyl)-2-methyl-propane-1,2-diamine dihydrochloride], the IC50 in test [1] was 0.0071 µg/mL; in test [2], 0.0036 µg/mL. Moreover, the Resistance index in test [1] amounted to 2.0. Besides, the inhibition in vivo at 10 mg/kg in test [3] (setting [4]) was 84%; in test [3] (setting [5]), 95%.
The like results for `CC(C)(CNc1ccnc2cc(Cl)ccc12)NCc1ccc(Oc2ccccc2)cc1.Cl.Cl` [Example 43, N1-(7-Chloro-quinolin-4-yl)-N2-(4-phenoxy-benzyl)-2-methyl-propane-1,2-diamine dihydrochloride] were, in that order, 0.0181 µg/mL, 0.016 µg/mL, 1.1, 30% and 98%.
With `CSc1ccc(CNC(C)(C)CNc2ccnc3cc(Cl)ccc23)cc1.Cl.Cl` [Example 44, N1-(7-Chloro-quinolin-4-yl)-N2-(4-methylsulphanyl-benzyl)-2-methyl-propane-1,2-diamine dihydrochloride], the IC50 amounted to 0.0154 µg/mL in test [1] and 0.0108 µg/mL in test [2]. In addition, the Resistance index in test [1] is listed as 1.4. The figures for the inhibition in vivo at 10 mg/kg in test [3] (setting [4]) and in test [3] (setting [5]) were 98% and 99%, respectively.
The like results for `CN(C)c1ccc(CNC(C)(C)CNc2ccnc3cc(Cl)ccc23)cc1.Cl.Cl` [Example 45, N1-(7-Chloro-quinolin-4-yl)-N2-(4-dimethylamino-benzyl)-2-methyl-propane-1,2-diamine dihydrochloride] were, in that order, 0.0125 µg/mL, 0.0123 µg/mL, 1.0, 98% and 97%.
Take `CCN(CC)c1ccc(CNC(C)(C)CNc2ccnc3cc(Cl)ccc23)cc1.Cl.Cl.Cl` [Example 46, N1-(7-Chloro-quinolin-4-yl)-N2-(4-diethylamino-benzyl)-2-methyl-propane-1,2-diamine trihydrochloride]: the IC50 in test [1] turned out to be 0.0126 µg/mL; in test [2], 0.0101 µg/mL. Besides, the Resistance index in test [1] turned out to be 1.2. Besides, the inhibition in vivo at 10 mg/kg in test [3] (setting [4]) worked out at 99.7%; in test [3] (setting [5]), 99%.
The like results for `CC(C)(CNc1ccnc2cc(Cl)ccc12)NCc1ccc([N+](=O)[O-])cc1` [Example 47, N1-(7-Chloro-quinolin-4-yl)-N2-(4-nitro-benzyl)-2-methy-propane-1,2-diamine dihydrochloride] were, in that order, 0.0136 µg/mL, 0.0094 µg/mL, 1.4, 70% and 79%.
As to `CC(C)(CNc1ccnc2cc(Cl)ccc12)NCc1cccc(C#N)c1.Cl.Cl` [Example 48, N1-(7-Chloro-quinolin-4-yl)-N2-(3-cyano-benzyl)-2-methyl-propane-1,2-diamine dihydrochloride], the half-inhibitory concentration (IC50) in test [1] is 0.0159 µg/mL; in test [2] it was 0.0123 µg/mL. For the same molecule, in test [1], the Resistance index is listed as 1.3. In addition, the inhibition in vivo at 10 mg/kg in test [3] (setting [4]) and in test [3] (setting [5]) was 99.9% throughout.
As to `CC(C)(CNc1ccnc2cc(Cl)ccc12)NCc1ccc(C#N)cc1.Cl.Cl` [Example 49, N1-(7-Chloro-quinolin-4-yl)-N2-(4-cyano-benzyl)-2-methyl-propane-1,2-diamine dihydrochloride], the IC50 in test [1] came to 0.0124 µg/mL; in test [2] it was 0.0082 µg/mL. In addition, the Resistance index in test [1] is 1.5. In addition, the inhibition in vivo at 10 mg/kg came out at 88% in test [3] (setting [4]) and 87% in test [3] (setting [5]).
In the case of `CC(C)c1ccc(CNC(C)(C)CNc2ccnc3cc(Cl)ccc23)cc1.Cl.Cl` [Example 50, N1-(7-Chloro-quinolin-4-yl)-N2-(4-isopropyl-benzyl)-2-methyl-propane-1,2-diamine dihydrochloride], the figures for the 50% inhibitory concentration (IC50) in test [1] and in test [2] were 0.0143 µg/mL and 0.0142 µg/mL, respectively. In addition, the Resistance index in test [1] worked out at 1.0. Further, the inhibition in vivo at 10 mg/kg in test [3] (setting [4]) came to 93%; in test [3] (setting [5]), 96%.
The like results for `CC(C)(CNc1ccnc2cc(Cl)ccc12)NCc1ccc(-c2ccccc2)cc1` [Example 51, N1-(7-Chloro-quinolin-4-yl)-N2-(bipenyl-4-yl-methyl)-2-methyl-propane-1,2-diamine dihydrochloride] were, in that order, 0.0091 µg/mL, 0.0123 µg/mL, 0.7, 82% and 99%.
Regarding `CC(C)(CNc1ccnc2cc(Cl)ccc12)NCc1ccccn1.Cl.Cl.Cl` [Example 56, N1-(7-Chloro-quinolin-4-yl)-N2-(pyridin-2-yl-methyl)-2-methyl-propane-1,2-diamine trihydrochloride], the IC50 in test [1] stood at 0.0537 µg/mL; in test [2], 0.0313 µg/mL. Moreover, the Resistance index in test [1] is 1.7. The figures for the inhibition in vivo at 10 mg/kg in test [3] (setting [4]) and in test [3] (setting [5]) were 98% and 97%, respectively.
Consider `CC(C)(CNc1ccnc2cc(Cl)ccc12)NCc1cccnc1.Cl.Cl.Cl` [Example 57, N1-(7-Chloro-quinolin-4-yl)-N2-(pyridin-3-yl-methyl)-2-methyl-propane-1,2-diamine trihydrochloride], for which the IC50 in test [1] worked out at 0.0282 µg/mL; in test [2], 0.0217 µg/mL. Also, the Resistance index in test [1] is 1.3. Moreover, the inhibition in vivo at 10 mg/kg amounted to 99.4% in test [3] (setting [4]) and 99.7% in test [3] (setting [5]).
Regarding `CC(C)(CNc1ccnc2cc(Cl)ccc12)NCc1ccnc2ccccc12.Cl.Cl.Cl` [Example 58, N1-(7-Chloro-quinolin-4-yl)-N2-(quinolin-4-yl-methyl)-2-methyl-propane-1,2-diamine trihydrochloride], the IC50 was determined as 0.069 µg/mL in test [1] and 0.0293 µg/mL in test [2]. For the same molecule, the Resistance index in test [1] was found to be 2.4. Moreover, the inhibition in vivo at 10 mg/kg is 72% in test [3] (setting [4]) and 88% in test [3] (setting [5]).
As to `Cl.Cl.Clc1ccc2c(N[C@H]3CCCC[C@@H]3NCc3ccccc3)ccnc2c1` [Example 60, (1S,2S)-N1-(7-Chloro-quinolin-4-yl)-N2-(benzyl)-cyclohexane-1,2-diamine hydrochloride (1:2)], the half-maximal inhibitory concentration (IC50) came out at 0.0122 µg/mL in test [1] and 0.0077 µg/mL in test [2]. In addition, the Resistance index in test [1] is given as 1.6. Further, the inhibition in vivo at 10 mg/kg in test [3] (setting [4]) was 67%; in test [3] (setting [5]), 87%.
The like results for `Cl.Cl.Clc1ccc(CN[C@H]2CCCC[C@@H]2Nc2ccnc3cc(Cl)ccc23)cc1` [Example 61, (1S,2S)-N1-(7-Chloro-quinolin-4-yl)-N2-(4-chloro-benzyl)-cyclohexane-1,2-diamine dihydrochloride] were, in that order, 0.0112 µg/mL, 0.0127 µg/mL, 0.9, 99.6% and 99.6%.
The like results for `Cl.Cl.Clc1ccc(CN[C@H]2CCCC[C@@H]2Nc2ccnc3cc(Cl)ccc23)c(Cl)c1` [Example 62, (1S,2S)-N1-(7-Chloro-quinolin-4-yl)-N2-(2,4-dichloro-benzyl)-cyclohexane-1,2-diamine dihydrochloride] were, in that order, 0.0642 µg/mL, 0.0508 µg/mL, 1.3, 99.8% and 99.8%.
Consider `Cl.Cl.Clc1ccc2c(N[C@H]3CCCC[C@@H]3NCc3ccc(Cl)c(Cl)c3)ccnc2c1` [Example 63, (1S,2S)-N1-(7-Chloro-quinolin-4-yl)-N2-(3,4-dichloro-benzyl)-cyclohexane-1,2-diamine dihydrochloride], for which the values for the IC50 in test [1] and in test [2] were 0.0146 µg/mL and 0.0101 µg/mL, respectively. In addition, the Resistance index in test [1] came out at 1.4. Moreover, the inhibition in vivo at 10 mg/kg in test [3] (setting [4]) and in test [3] (setting [5]) was 99.9% each time.
